From patent US5922875A, “Aromatic acid diamides with antigastrin activity, a method for their preparation and their pharmaceutical use” (Rotta Research Laboratorium S.p.A., priority 1995, dated 1999) come the findings set out here.

The target of test [1] is T1, central CCK-B receptor (Cavia porcellus, UniProt H0VZC5).
T1 construct: The cerebral cortices of male albino guinea pigs were therefore used; from tissue; host or cells: cerebral cortex membranes of male albino guinea pigs
T1 sequence (H0VZC5 1-426): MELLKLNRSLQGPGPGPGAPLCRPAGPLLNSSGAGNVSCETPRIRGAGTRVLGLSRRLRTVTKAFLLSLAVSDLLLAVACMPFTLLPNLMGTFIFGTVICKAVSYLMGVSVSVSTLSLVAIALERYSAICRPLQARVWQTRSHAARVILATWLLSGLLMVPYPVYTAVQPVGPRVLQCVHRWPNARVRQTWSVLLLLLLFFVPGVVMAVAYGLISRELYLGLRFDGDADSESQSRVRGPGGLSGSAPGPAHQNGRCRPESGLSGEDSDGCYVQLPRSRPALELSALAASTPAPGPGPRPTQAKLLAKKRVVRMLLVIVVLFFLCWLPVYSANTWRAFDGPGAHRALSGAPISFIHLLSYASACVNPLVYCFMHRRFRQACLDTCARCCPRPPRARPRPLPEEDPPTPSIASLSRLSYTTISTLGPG
The test is described as follows: Inhibition of binding of [3H][N-methyl-N-leucine]CCK-8 to guinea pig cortical membranes (anti-CCK-B in vitro). How it is done: The capacity of the compounds which are the subject of the invention to interact with the central CCK-B receptor was evaluated with the use of [3-H][N-methyl-N-leucine]CCK-8. […] The cerebral cortices of male albino guinea pigs were therefore used, the method given above being followed with slight modifications [Makovec et al.; Bioorganic & Med. Chem. Letters 3 (5)(1993), 861-866] so as to give a membrane content corresponding to about 300 mcg of protein/mL.

The target of test [2] is T2, type-B cholecystokynin (CCK-B) or gastrin receptors (Oryctolagus cuniculus, UniProt P46627).
T2 construct: rabbit gastric mucosa cells were prepared by conventional techniques; endogenous in cells; host or cells: freshly isolated rabbit gastric mucosa cells (collagenase/pronase digestion)
T2 sequence (P46627 1-452): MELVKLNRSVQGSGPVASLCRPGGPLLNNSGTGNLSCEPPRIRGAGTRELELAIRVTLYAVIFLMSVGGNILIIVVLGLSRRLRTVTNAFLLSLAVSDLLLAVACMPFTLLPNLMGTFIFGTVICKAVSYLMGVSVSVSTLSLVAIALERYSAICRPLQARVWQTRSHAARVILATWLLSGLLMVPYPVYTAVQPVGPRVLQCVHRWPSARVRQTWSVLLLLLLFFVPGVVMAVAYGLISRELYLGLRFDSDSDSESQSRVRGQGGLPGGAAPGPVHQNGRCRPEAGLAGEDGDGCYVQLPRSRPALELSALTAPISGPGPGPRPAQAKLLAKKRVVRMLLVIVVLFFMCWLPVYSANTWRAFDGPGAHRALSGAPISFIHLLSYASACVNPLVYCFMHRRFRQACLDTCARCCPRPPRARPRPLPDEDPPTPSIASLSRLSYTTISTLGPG
Nature of the test: Inhibition of the gastrin-induced increase of cytosolic calcium in rabbit gastric mucosa cells. It counts as cell-based. An excerpt:
The parietal cells of the gastric mucosa are responsible for the secretion of HCl. They present specific membrane receptors which may be activated by gastrin and which have been defined as type-B cholecystokynin (CCK-B) or gastrin receptors.
Since it has been observed that the activation of the CCK-B receptors by gastrin results in a raising of the levels of cytosolic calcium ions, a technique has been used for measuring the increase in intracellular calcium induced by gastrin in the presence and absence of the compounds which are the subject of the invention, as an index of the anti-gastrin activity of the compounds themselves.
Suspensions (0.8×10^6 /ml) of rabbit gastric mucosa cells were prepared by conventional techniques with the use of collagenase and pronase as digestive enzymes; the estimation of the [Ca^2+ ]i values, basal or achieved after stimulation of the cell system was carried out in accordance with Grynkiewicz et al [J.Biol.Chem 260 (1985), 3440]. In the control samples the cells were stimulated with […] while in the samples in which the effect of the compounds in question was evaluated, the cells were incubated therewith before stimulation with gastrin. The results are expressed as percentage increases in [Ca^2+ ]i with respect to the control value. The anti-gastrin activity of the compounds was expressed as the IC50 value, that is, the concentration (in μmoles/liter) at which the response to the stimulus induced by the gastrin was reduced by 50%. The results thus obtained for several compounds of the invention are given in Table 3 which also gives an index formed from the ratio between the peripheral anti-gastrin activity just described and the displacement activity derived from the study of binding to the cortical receptors of guinea pigs described above.

Test [3] deals with T3, cholecystokynin receptor (CCK-A) (Cavia porcellus, UniProt Q63931).
T3 construct: The experimental model used was the guinea pig gall bladder stimulated in vitro by CCK-8; from tissue; host or cells: guinea pig gall bladder in vitro
T3 sequence (Q63931 1-430): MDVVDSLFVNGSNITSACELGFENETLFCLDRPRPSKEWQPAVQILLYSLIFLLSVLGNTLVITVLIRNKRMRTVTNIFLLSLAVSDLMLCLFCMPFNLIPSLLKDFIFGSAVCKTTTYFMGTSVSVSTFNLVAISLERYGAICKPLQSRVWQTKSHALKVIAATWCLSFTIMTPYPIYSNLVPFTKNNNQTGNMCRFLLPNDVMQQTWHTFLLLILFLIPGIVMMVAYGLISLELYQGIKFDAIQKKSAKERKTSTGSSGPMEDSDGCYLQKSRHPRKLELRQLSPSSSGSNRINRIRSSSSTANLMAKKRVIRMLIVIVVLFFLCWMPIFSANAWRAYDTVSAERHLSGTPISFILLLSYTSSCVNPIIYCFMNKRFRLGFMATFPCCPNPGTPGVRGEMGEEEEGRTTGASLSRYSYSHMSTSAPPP
Nature of the test: Anti-CCK-A activity, guinea pig gall bladder stimulated in vitro by CCK-8. To be noted: selectivity CCK-B vs CCK-A. The source says: The experimental model used was the guinea pig gall bladder stimulated in vitro by CCK-8 according to the method described by Makovec et al. [(Arzneim. Forsch/Drug. Res. 35 (7), 1048-1051 (1985)].

As for `Cc1cc(C)c(NC(=O)CC(CC(=O)O)c2cccc3ccccc23)c(C(=O)N2CCC3(CCCC3)CC2)c1` (centres unmarked) [Compound 4], the IC50 (in general, the concentration at which inhibition is half-maximal) in test [1] (displacement of [3H][N-methyl-N-leucine]CCK-8, cortical membrane in guinea pigs, read-out: IC50) worked out at 24 nM; in test [2] (cells stimulated with 5×10^-8 gastrin, [Ca2+]i), 4 nM; in test [2] (gastrin-induced [Ca2+]i in rabbit gastric mucosa cells), 4 nM. Further, in test [1] (ratio of binding IC50 values), the “times less active than pentagastrin” value is on record as 8 times. Besides, the “affinity times higher for the gastrin receptor (CCK-B) than for the cholecystokynin receptor (CCK-A)” value in test [3] is on record as “at least 300 times”.
